The text below walks through data of publication PMC9313321 (Biomedicines, 2022).

In assay [1] the target is T1, Cu(II)-induced Aβ42 aggregation (Homo sapiens, UniProt P05067).
T1 construct: Beta-amyloid protein, fragment 1-42; purchased GeneCust
Put plainly: Inhibition of Cu(II)-induced Aβ42 aggregation (thioflavin T fluorescence). Format: biochemical. As to conditions: read-out: Aβ42 Cu-Ind. Aggreg. Inhib. The procedure: (§1) The inhibition of Aβ42 aggregation and Cu(II)-induced Aβ42 aggregation, carried out by the RIV–BIM hybrids, was studied using a reported method based on the fluorescence emission of thioflavin T [52, 53].
(§2) Solutions of phosphate buffer 0.215 M at pH = 8.00, Na2CO3 300 μM in distilled water, NaOH 250 mM in distilled water, glycine-NaOH 50 mM buffer at pH = 8.50 and CuCl2 240 μM in phosphate buffer were prepared. Stock solutions of […] of the RIV–BIM compounds were prepared in MeOH (with 20% DMSO). Working solutions of 240 μM of the RIV–BIM hybrids were prepared by the proper dilution of their stock solutions with phosphate buffer. A working solution of glycine-NaOH 50 mM buffer at pH = 8.50 containing 5 μM of thioflavin T (ThT) was prepared daily. Aβ42 (GeneCust) was pre-treated with 1,1,1,3,3,3-hexafluoro-2-propanol (HFIP) to obtain a solution of 0.149 mM by brief sonication and vortexing, which was kept covered overnight at room temperature. From the Aβ42 solution, aliquots of 250 μL were placed into Eppendorf tubes under ice and set to evaporate inside a hood at room temperature overnight. When the contents of the Eppendorf tubes were dried, the Aβ42 aliquots were stored at −20 °C until needed. To obtain the Aβ42 working solution, the Aβ42 aliquots were dissolved with a freshly prepared mixture of 69.5 μL of CH3CN/Na2CO3 (300 μM)/NaOH (250 mM) (48.3/48.3/3.4, v/v/v) by brief sonication and vortexing to obtain an Aβ42 solution of 531.24 μM. To this solution, 392.5 μL of phosphate buffer was added, achieving an Aβ42 working solution of 80 μM. To prepare the incubations, three replicates of Aβ42 alone (30 μL Aβ42 80 μM + 30 μL phosphate buffer), Aβ42 with RIV–BIM (30 μL Aβ42 80 μM + 10 μL RIV–BIM 240 μM + 20 μL phosphate buffer), Aβ42 with copper (30 μL Aβ42 80 μM + 10 μL CuCl2 240 μM + 20 μL phosphate buffer) and Aβ42 with copper and RIV–BIM (30 μL Aβ42 80 μM + 10 μL CuCl2 240 μM + 10 μL RIV–BIM 240 μM + 10 μL phosphate buffer) were placed in Eppendorfs. To obtain the blank solutions, a similar number of Eppendorfs, replacing Aβ42 with phosphate buffer, were prepared. Incubations were performed in a water bath at 37 °C with agitation for 24 h. Afterwards, 180 μL of glycine-NaOH 50 mM buffer at pH = 8.50 containing 5 μM of ThT was added to each Eppendorf and then they were vortexed. Finally, 200 μL of solution from each Eppendorf was placed in the wells of a microplate and fluorescence measurements were monitored using a Spectramax Gemini EM (Molecular Devices) fluorimeter with an excitation wavelength of 446 nm and an emission wavelength of 485 nm. Blank signals were subtracted from the corresponding samples. The fluorescence intensity of the Aβ42 + RIV–BIM solution was compared to that of the Aβ42 solution to obtain the inhibition of Aβ42 self-aggregation for each compound. The fluorescence intensity of the Aβ42 + Cu(II) + RIV–BIM solution was compared to that of the Aβ42 + Cu(II) solution to obtain the inhibition of the Cu(II)-induced Aβ42 aggregation for each hybrid.
(§3) The anti-amyloidogenic capacity of the compounds was assessed in vitro using the thioflavin T (ThT) method. To record fluorescence emission, excitation (446 nm) and emission (485 nm) wavelengths were used. When ThT binds to amyloid fibrils, an increase in absorbance and emission of this dye occurs with concomitant red shifts of the respective spectra. The percent of inhibition of Aβ42 aggregation is shown in Table 1, and the assays were performed in the presence of 20 μM of inhibitor. These concentration conditions were used to overcome solubility problems of some compounds in the aqueous phosphate buffer working medium. […]. […]

Assay [2] has as its system Aβ. The arrangement: method as in PMID 32781220. As to conditions: 50 μM concentration; cited from earlier work.
The target of assay [3] is T2, Aβ42 self-aggregation (Homo sapiens, UniProt P05067).
T2 construct: Beta-amyloid protein, fragment 1-42; purchased GeneCust
T2 sequence (P05067 672-713 limits assumed): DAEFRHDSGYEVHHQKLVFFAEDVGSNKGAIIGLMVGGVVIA
Briefly: biochemical. Format: biochemical. As to conditions: read-out: Aβ42 Self-Aggreg. Inhib. The procedure: as §1, §2, §3

A short description of assay [4]: Radical scavenging activity (DPPH method). As to conditions: read-out: Antioxid. EC50, 30 min, absorbance 517 nm. In general terms: Loss of DPPH colour is used to gauge radical scavenging.
Protocol: To determine the radical scavenging activity (antioxidant activity) of the novel RIV–BIM hybrids, the DPPH method was performed as previously described in the literature [49]. Working solutions of 20 mg of the ligands were prepared daily in 10 mL of MeOH (with a 10% of DMSO). A working solution of 2 mg DPPH in 100 mL MeOH was prepared daily, and its absorbance was checked to be between 0.75 and 1.00 (a.u.). […] Each one of the calibrate points was kept for 30 min under darkness to allow the ligands to exert their antioxidant effects. After 30 min, an auto-zero was performed with MeOH in both sample and reference cells, using a UV–Vis spectrophotometer. […] The antioxidant activity (%AA) for each point was calculated using the following equation: %AA=ADPPH−Aligand/ADPPH×100
The radical scavenging activity of the RIV–BIM compounds was determined by a spectrophotometric method involving the 2,2-diphenyl-1-picrylhydrazyl (DPPH) free radical [35, 64].

T1 sequence (P05067 672-713 limits assumed): as above

For `COc1cc(/C=C/C(=O)CC(=O)/C=C/c2ccc(O)c(OC)c2)ccc1O` [Curcumin, reference compound], the inhibition at 20 µM in assay [1] was 62.7%; in assay [3], 65.7%. Moreover, the Aβ inhibition in assay [2] is 62%.

Consider `Cc1c(O)c(=O)ccn1C` [DMHP, reference compound], for which the EC50 (commonly the concentration needed to bring the measured effect to its halfway point) in assay [4] was 157 ± 8 µM.

Regarding `Nc1c2c(nc3ccccc13)CCCC2` [Tacrine, reference compound], the inhibition at 20 µM in assay [3] is 28.1%.
